Test results: ChEMBL document CHEMBL1909590, “Design, synthesis and docking studies of new quinoline-3-carbohydrazide derivatives as antitubercular agents” (2011)
≈ marks a conversion by molar mass, not a printed value.

How the values were obtained:
Type in all cases: functional
[1] = tested on: Escherichia coli; assay: Antibacterial activity against Escherichia coli ATCC 25922 after 18 to 25 hrs by serial plate dilution method
[2] = tested on: Pseudomonas aeruginosa; assay: Antibacterial activity against Pseudomonas aeruginosa ATCC 27853 after 18 to 25 hrs by serial plate dilution method
[3] = tested on: Staphylococcus aureus; assay: Antibacterial activity against Staphylococcus aureus ATCC 25923 after 18 to 25 hrs by serial plate dilution method
[4] = tested on: Mycolicibacterium fortuitum; assay: Antimycobacterial activity against Mycobacterium fortuitum ATCC 19542 using compound level ranging from 1 to 100 ug/mL after 7 days by resazurin reduction test; conditions: ATCC 19542, 168 h
[5] = tested on: Mycolicibacterium fortuitum; assay: Antimycobacterial activity against Mycobacterium fortuitum ATCC 19542 using compound level ranging from 0.3125 to 5 ug/mL after 7 days by resazurin reduction test; conditions: ATCC 19542, 168 h
[6] = tested on: Mycolicibacterium smegmatis; assay: Antimycobacterial activity against Mycobacterium smegmatis MC2 ATCC 19420 using compound level ranging from 0.3125 to 5 ug/mL after 7 days by resazurin reduction test; conditions: MC2 ATCC 19420, 168 h
[7] = tested on: Mycobacterium tuberculosis; assay: Antimycobacterial activity against Mycobacterium tuberculosis H37Rv ATCC 27294 using compound level ranging from 1 to 100 ug/mL after 7 days by resazurin reduction test; conditions: H37Rv ATCC 27294, 168 h
[8] = tested on: Mycobacterium tuberculosis; assay: Growth inhibition of Mycobacterium tuberculosis H37Rv ATCC 27294 using compound level ranging from 1 to 100 ug/mL after 7 days by resazurin reduction test
[9] = tested on: Streptococcus pyogenes; assay: Antibacterial activity against Streptococcus pyogenes clinical isolate after 18 to 25 hrs by serial plate dilution method
[10] = tested on: Mycolicibacterium smegmatis; assay: Antimycobacterial activity against Mycobacterium smegmatis MC2 ATCC 19420 using compound level ranging from 1 to 100 ug/mL after 7 days by resazurin reduction test; conditions: MC2 ATCC 19420, 168 h
[11] = tested on: Mycobacterium tuberculosis; assay: Antimycobacterial activity against Mycobacterium tuberculosis H37Rv ATCC 27294 using compound level ranging from 0.3125 to 5 ug/mL after 7 days by resazurin reduction test; conditions: H37Rv ATCC 27294, 168 h
[12] = tested on: Klebsiella pneumoniae; assay: Antibacterial activity against Klebsiella pneumoniae clinical isolates after 18 to 25 hrs by serial plate dilution method

Row | Structure (SMILES) | MIC [1] [µg/mL] | MIC [2] [µg/mL] | MIC [3] [µg/mL] | MIC [4] [µg/mL] | MIC [5] [µg/mL] | MIC [6] [µg/mL] | MIC [7] [µg/mL] | growth inhibition (GI) [8] [%] | MIC [9] [µg/mL] | MIC [10] [µg/mL] | MIC [11] [µg/mL] | MIC [12] [µg/mL]
1 | COc1ccc2[nH]cc(/C=N/NC(=O)c3cnc4c(C(F)(F)F)cccc4c3O)c2c1 | 0.1 (≈ 0.233 µM) | 0.4 (≈ 0.934 µM) | 0.8 (≈ 1.87 µM) | 10 (≈ 23.3 µM) | 10 (≈ 23.3 µM) | 10 (≈ 23.3 µM) | 1 (≈ 2.33 µM) | 95 | 0.4 (≈ 0.934 µM) | 10 (≈ 23.3 µM) | 0.625 (≈ 1.46 µM) | 0.1 (≈ 0.233 µM)
2 | COc1ccc(NC(=O)NNC(=O)c2cnc3c(C(F)(F)F)cccc3c2O)cc1 | 0.1 (≈ 0.238 µM) | 0.4 (≈ 0.952 µM) | 0.8 (≈ 1.9 µM) | 10 (≈ 23.8 µM) | 12.5 (≈ 29.7 µM) | 10 (≈ 23.8 µM) | 1 (≈ 2.38 µM) | 90 | 0.4 (≈ 0.952 µM) | 10 (≈ 23.8 µM) | 1.25 (≈ 2.97 µM) | 0.1 (≈ 0.238 µM)
